# Patent US20260286396A1, “AXL KNOCK OUT CAR T CELLS AND METHODS FOR USE THEREOF” (priority 2023, published 2026)
# Tested on: CART19 cells
# Experiment: RNA sequencing of CART19 cells with Ingenuity pathway analysis (pathways, upstream regulators)
# Assay type: cell-based, human
# Settings: CART19+JeKo-1, 30 nM TP-0903 vs vehicle, 24 h
# Procedure: CART19 cells were isolated using CD4 and CD8 microbeads to […] the JeKo-1 target cells; this isolation step was performed twice to eliminate the possible contamination of JeKo-1 cells. RNA was isolated from the CART19 cells using QIAGEN RNEASY® Plus Mini Kit. RNA was further treated with DNase I (QIAGEN) and purified using RNA Clean & Concentrator (Zymo Research). […] The fastq files were viewed in FastQC to check for quality (Cox et al., Mol Ther., 29 (4): 1529-1540, 2020). After verifying the lack of adapter sequences with FastQC, Cutadapt (Martin, EMBnet, 17:10-12, 2011) was used to filter for reads greater than 32 base pairs. Output files were re-checked for quality using FastQC. The latest human reference genome (GRCh38.p13) was downloaded from NCBI. Genome index files were generated using STAR (Cox et al. 2020, supra, and Dobin et al., Bioinformatics, 29:15-21, 2012). Paired end reads from fastq files were mapped to the genome for each condition. HTSeq was used to generate expression counts for each gene (Cox et al. 2020, supra; and Putri et al., Bioinformatics, 38:2943-2945, 2022). […] The disruption efficiency of the CRISPR/Cas9 GM-CSF knockout was determined using targeted sequencing through PCR and TIDE analysis (software available at tide.nki.nl) as described elsewhere (Sakemura et al. 2021, supra).
# RNA sequencing of CART19 cells was then performed. […] Data were analyzed with the use of QIAGEN Ingenuity Pathway Analysis (IPA) (digitalinsights.qiagen.com/IPA; Krämer et al., Bioinformatics 30 (4): 523-530, 2014).
smiles,measurement,value
"CN1CCN(Cc2ccc(Nc3ncc(Cl)c(Nc4ccccc4S(=O)(=O)N(C)C)n3)cc2)CC1 [TP-0903, Dubermatinib]",ABCG1 Expr Log Ratio,−0.301
same,ADORA2A Expr Log Ratio,0.629
same,ADRA1B Expr Log Ratio,−0.268
same,AGPAT2 Expr Log Ratio,0.051
same,ALDH2 Expr Log Ratio,−0.892
same,APP Expr Log Ratio,0.132
same,ARHGAP5 Expr Log Ratio,0.025
same,ARNT Expr Log Ratio,−0.009
same,ATF3 Expr Log Ratio,−0.209
same,ATF4 Expr Log Ratio,−0.52
same,BCAP31 Expr Log Ratio,0.118
same,BCL3 Expr Log Ratio,0.097
same,BCL6 Expr Log Ratio,0.021
same,BMP7 Expr Log Ratio,−0.942
same,BMP10 Expr Log Ratio,−1.585
same,BTK Expr Log Ratio,−0.323
same,C3 Expr Log Ratio,0.511
same,CALCA Expr Log Ratio,−1.865
same,CCND1 Expr Log Ratio,−0.129
same,CCR3 Expr Log Ratio,−0.728
same,CD2 Expr Log Ratio,0.318
same,CD5 Expr Log Ratio,0.33
same,CD28 Expr Log Ratio,0.407
same,CD38 Expr Log Ratio,−0.087
same,CD40LG Expr Log Ratio,0.131
same,CD44 Expr Log Ratio,0.428
same,CD48 Expr Log Ratio,0.067
same,CD274 Expr Log Ratio,−0.506
same,COMMD1 Expr Log Ratio,0.174
same,DUSP10 Expr Log Ratio,0.211
same,EBF1 Expr Log Ratio,−0.235
same,EDN1 Expr Log Ratio,−0.099
same,EIF2AK4 Expr Log Ratio,−0.2
same,EPX Expr Log Ratio,−0.176
same,ERBB2 Expr Log Ratio,−0.057
same,FHL2 Expr Log Ratio,0.639
same,FMR1 Expr Log Ratio,0.099
same,FYN Expr Log Ratio,0.259
same,GAS5-AS1 Expr Log Ratio,−0.022
same,GNA14 Expr Log Ratio,−2.841
same,HAVCR1 Expr Log Ratio,−0.121
same,IGF1 Expr Log Ratio,−0.149
same,IGF1R Expr Log Ratio,−0.155
same,IKBKB Expr Log Ratio,−0.036
same,IKZF2 Expr Log Ratio,−0.318
same,IL4R Expr Log Ratio,0.093
same,IL10 Expr Log Ratio,−0.008
same,IL15 Expr Log Ratio,0.191
same,IL18 Expr Log Ratio,0.03
same,IL21 Expr Log Ratio,−0.452
same,INSIG1 Expr Log Ratio,−0.836
same,IRF4 Expr Log Ratio,−0.587
same,ITGB2 Expr Log Ratio,0.114
same,KDM1A Expr Log Ratio,0.09
same,KRAS Expr Log Ratio,0.11
same,LEF1 Expr Log Ratio,0.105
same,LGALS3 Expr Log Ratio,−0.014
same,LTA Expr Log Ratio,0.37
same,LTBR Expr Log Ratio,0.08
same,MAPK3 Expr Log Ratio,−0.166
same,MAPK7 Expr Log Ratio,−0.017
same,MBP Expr Log Ratio,0.105
same,MED1 Expr Log Ratio,−0.112
same,MIR-29 Expr Log Ratio,−3.808
same,MYB Expr Log Ratio,−0.03
same,MYDGF Expr Log Ratio,−0.06
same,NFATC1 Expr Log Ratio,0.232
same,NFE2L2 Expr Log Ratio,0.172
same,NFIL3 Expr Log Ratio,−0.13
same,NFKBIA Expr Log Ratio,0.173
same,NPAT Expr Log Ratio,−0.021
same,NR4A2 Expr Log Ratio,0.982
same,NREP Expr Log Ratio,−0.21
same,PAF1 Expr Log Ratio,0.135
same,PDCD1 Expr Log Ratio,0.967
same,POU2F1 Expr Log Ratio,−0.356
same,PRDM1 Expr Log Ratio,−0.006
same,PRKCZ Expr Log Ratio,0.36
same,PTEN Expr Log Ratio,1.201
same,PTPRJ Expr Log Ratio,0.044
same,RAD21L1 Expr Log Ratio,0.844
same,RAMP1 Expr Log Ratio,−0.296
same,RRP1B Expr Log Ratio,−0.087
same,RXRA Expr Log Ratio,−0.75
same,SATB2 Expr Log Ratio,−0.715
same,SIRT6 Expr Log Ratio,−0.028
same,SMAD2 Expr Log Ratio,−0.395
same,SMAD7 Expr Log Ratio,0.057
same,SMC1B Expr Log Ratio,−0.146
same,SNCA Expr Log Ratio,1.134
same,SORL1 Expr Log Ratio,0.047
same,SPI1 Expr Log Ratio,−0.215
same,SREBF1 Expr Log Ratio,−0.191
same,SREBF2 Expr Log Ratio,−0.048
same,STAG3 Expr Log Ratio,−0.19
same,STARD7 Expr Log Ratio,−0.076
same,SUCNR1 Expr Log Ratio,−1.022
same,TEAD3 Expr Log Ratio,−0.396
same,TERT Expr Log Ratio,−0.599
same,TGFB1 Expr Log Ratio,−0.094
same,TGFB3 Expr Log Ratio,0.178
same,TGFBR2 Expr Log Ratio,0.18
same,TLR2 Expr Log Ratio,0.013
same,TLR7 Expr Log Ratio,−1.275
same,TNFRSF4 Expr Log Ratio,0.263
same,TNFSF15 Expr Log Ratio,1.42
same,TPH1 Expr Log Ratio,0.019
same,TRAF3 Expr Log Ratio,0.022
same,WNT5B Expr Log Ratio,−0.491
same,YAP1 Expr Log Ratio,−0.546
same,upstream regulator ABCG1 Activation Z-Score,1.387
same,upstream regulator ADORA2A Activation Z-Score,−0.245
same,upstream regulator AGPAT2 Activation Z-Score,1
same,upstream regulator ALDH2 Activation Z-Score,1.432
same,upstream regulator APP Activation Z-Score,−2.018
same,upstream regulator APP Predicted Activation State,inhibited
same,upstream regulator ARNT Activation Z-Score,−1.795
same,upstream regulator ATF3 Activation Z-Score,−1.227
same,upstream regulator ATF4 Activation Z-Score,−2.62
same,upstream regulator ATF4 Predicted Activation State,inhibited
same,upstream regulator BCAP31 Activation Z-Score,−0.968
same,upstream regulator BCL3 Activation Z-Score,−1.353
same,upstream regulator BCL6 Activation Z-Score,0.949
same,upstream regulator BCR (COMPLEX) Activation Z-Score,−1.126
same,upstream regulator BMP7 Activation Z-Score,−1.089
same,upstream regulator BMP10 Activation Z-Score,−0.707
same,upstream regulator BTK Activation Z-Score,−1.091
same,upstream regulator C3 Activation Z-Score,−0.378
same,upstream regulator CALCA Activation Z-Score,0.887
same,upstream regulator CCK Activation Z-Score,0.437
same,upstream regulator CCL2 Activation Z-Score,−1.368
same,upstream regulator CCND1 Activation Z-Score,0.042
same,upstream regulator CD5 Activation Z-Score,−1.732
same,upstream regulator CD28 Activation Z-Score,−1.369
same,upstream regulator CD38 Activation Z-Score,−1.353
same,upstream regulator CD40LG Activation Z-Score,−2.045
same,upstream regulator CD40LG Predicted Activation State,inhibited
same,upstream regulator CD44 Activation Z-Score,−1.835
same,upstream regulator CD274 Activation Z-Score,0.478
same,upstream regulator CG Activation Z-Score,−0.872
same,upstream regulator COMMD1 Predicted Activation State,activated
same,upstream regulator DUSP10 Activation Z-Score,0.392
same,upstream regulator EBF1 Activation Z-Score,−2.182
same,upstream regulator EBF1 Predicted Activation State,inhibited
same,upstream regulator EDN1 Activation Z-Score,−1.02
same,upstream regulator EIF2AK4 Activation Z-Score,−2.395
same,upstream regulator EIF2AK4 Predicted Activation State,inhibited
same,upstream regulator ERBB2 Activation Z-Score,−2.46
same,upstream regulator ERBB2 Predicted Activation State,inhibited
same,upstream regulator ERK1/2 Activation Z-Score,−0.915
same,upstream regulator ERK Activation Z-Score,−2.029
same,upstream regulator ERK Predicted Activation State,inhibited
same,upstream regulator FHL2 Activation Z-Score,−0.64
same,upstream regulator FMR1 Activation Z-Score,1.976
same,upstream regulator FYN Activation Z-Score,−1.446
same,upstream regulator HAVCR1 Activation Z-Score,0.104
same,upstream regulator HNF1A-AS1 Activation Z-Score,−2
same,upstream regulator HNF1A-AS1 Predicted Activation State,inhibited
same,upstream regulator ID3 Activation Z-Score,1.671
same,upstream regulator IFN ALPHA/BETA Activation Z-Score,−1.195
same,upstream regulator IGF1 Activation Z-Score,−1.148
same,upstream regulator IGF1R Activation Z-Score,−0.652
same,upstream regulator IKBKB Activation Z-Score,−2.146
same,upstream regulator IKBKB Predicted Activation State,inhibited
same,upstream regulator IL1 Activation Z-Score,−1.785
same,upstream regulator IL4R Activation Z-Score,−0.187
same,upstream regulator IL10 Activation Z-Score,1.633
same,upstream regulator IL12 (FAMILY) Activation Z-Score,1.39
same,upstream regulator IL15 Activation Z-Score,−1.117
same,upstream regulator IL18 Activation Z-Score,−0.28
same,upstream regulator IL21 Activation Z-Score,0.183
same,upstream regulator IL27RA Activation Z-Score,2.207
same,upstream regulator IL27RA Predicted Activation State,activated
same,upstream regulator INSIG1 Activation Z-Score,1.495
same,upstream regulator INSULIN Activation Z-Score,−1.452
same,upstream regulator IRF4 Activation Z-Score,0.415
same,upstream regulator ITGB2 Activation Z-Score,−0.128
same,upstream regulator KCNIP3 Activation Z-Score,0.378
same,upstream regulator KDM1A Activation Z-Score,0.351
same,upstream regulator KRAS Activation Z-Score,−0.772
same,upstream regulator LEF1 Activation Z-Score,0.367
same,upstream regulator LGALS3 Activation Z-Score,−0.747
same,upstream regulator LTA Activation Z-Score,−1.763
same,upstream regulator LTB Activation Z-Score,−1.246
same,upstream regulator LTBR Activation Z-Score,−1.664
same,upstream regulator MAPK3 Activation Z-Score,−0.896
same,upstream regulator MAPK7 Activation Z-Score,−0.64
same,upstream regulator MBP Activation Z-Score,0.577
same,upstream regulator MED1 Activation Z-Score,−1.671
same,upstream regulator MIR-29 Activation Z-Score,1.128
same,upstream regulator MIR-450A-5P (AND OTHER MIRNAS W/SEED UUUGCGA) Predicted Activation State,activated
same,upstream regulator MIRLET7 Activation Z-Score,0
same,upstream regulator MLXIPL Predicted Activation State,inhibited
same,upstream regulator MTORC1 Activation Z-Score,−2.087
same,upstream regulator MTORC1 Predicted Activation State,inhibited
same,upstream regulator MYB Activation Z-Score,−1.742
same,upstream regulator NFAT (FAMILY) Activation Z-Score,−2.176
same,upstream regulator NFAT (FAMILY) Predicted Activation State,inhibited
same,upstream regulator NFATC1 Activation Z-Score,−1.4
same,upstream regulator NFE2L2 Activation Z-Score,−1.966
same,upstream regulator NFIL3 Activation Z-Score,−2.2
same,upstream regulator NFIL3 Predicted Activation State,inhibited
same,upstream regulator NFKBIA Activation Z-Score,−0.758
same,upstream regulator NR4A2 Activation Z-Score,0.898
same,upstream regulator NREP Activation Z-Score,0.218
same,upstream regulator NRG1 Activation Z-Score,−1.949
same,upstream regulator P38 MAPK Activation Z-Score,−2.405
same,upstream regulator P38 MAPK Predicted Activation State,inhibited
same,upstream regulator PDCD1 Activation Z-Score,0.055
same,upstream regulator PDX1 Activation Z-Score,0.24
same,upstream regulator POSTN Activation Z-Score,−1
same,upstream regulator PRDM1 Activation Z-Score,0.122
same,upstream regulator PRKCZ Activation Z-Score,−0.167
same,upstream regulator PTEN Activation Z-Score,0.449
same,upstream regulator PTPRJ Activation Z-Score,0
same,upstream regulator RAS Activation Z-Score,−2.375
same,upstream regulator RAS Predicted Activation State,inhibited
same,upstream regulator RXRA Activation Z-Score,1.069
same,upstream regulator SATB2 Activation Z-Score,−0.152
same,upstream regulator SIRT6 Activation Z-Score,0.064
same,upstream regulator SMAD2 Activation Z-Score,−1.681
same,upstream regulator SMAD7 Activation Z-Score,−0.135
same,upstream regulator SNCA Activation Z-Score,−0.246
same,upstream regulator SORL1 Activation Z-Score,−2.714
same,upstream regulator SORL1 Predicted Activation State,inhibited
same,upstream regulator SPI1 Activation Z-Score,−1.174
same,upstream regulator SREBF1 Activation Z-Score,−3.191
